# From patent US10174011B2, “Heterocyclic compounds, process for preparation of the same and use thereof” (SHANGHAI INSTITUTE OF MATERIA MEDICA, CHINESE ACADEMY OF …, priority 2014, dated 2019)
# Read-outs that look alike come from different tables or passages of the source.
# Experiments:
# [1] = target: human recombinant 5-HT1A receptor (Homo sapiens (Human), UniProt P08908); assay: 5-HT1A receptor agonism activity test (inhibition of cAMP production, LANCE cAMP 384 Kit); type: cell-based; details: HEK293 cells expressing human recombinant 5-HT1A receptor; test concentration 0.1 nM-10000 nM; read-out: 5-HT1A receptor agonism (EC50, mol/L)
# Source text: Pharmacological Test 1) 5-HT1A Receptor Agonism Activity Test
# [2] = system: PCP-induced hyperactivity in mice; assay: In vivo efficacy test (PCP-induced high locomotor activity in mice); details: male ICR mice, oral administration 45 minutes before PCP 7 mg/kg i.p.; dose significantly reducing PCP-induced hyperactivity vs model group
# Experimental: 5) In Vivo Efficacy Test (PCP-Induced High Locomotor Activity in Mice)
# PCP solution was prepared in a suitable concentration for 7 mg/kg dosage with saline. […] Male ICR mice (18-22 g) were used as test animals. All the test mice were randomly divided into vehicle control group, model control group, positive control group, and treatment group(8 mice per group). Mice of each group were orally administered test compounds or vehicle. After 45 minutes PCP solution was administered (7 mg/kg) through intraperitoneal injection. The mice track after drug or saline administration was recorded and analyzed by the spontaneous, open-field video analysis system. […] The mice track was recorded and analyzed by the spontaneous, open-field video analysis system. The total distance in each group was calculate and expressed as mean+SD and statistical evaluation was performed by one way ANOVA.
# [3] = target: human recombinant 5-HT2A receptor (Homo sapiens (Human), UniProt P28223); assay: 5-HT2A receptor antagonism activity test (FLIPR Calcium 5 Assay Kit); details: read-out: 5-HT2A receptor antagonism (IC50, mol/L)
# [4] = target: human recombinant D2 receptor (Homo sapiens (Human), UniProt P14416); assay: D2 receptor antagonism activity test (inhibition of dopamine-induced decrease of cAMP production, LANCE cAMP 384 Kit); details: read-out: D2 receptor antagonism (IC50, mol/L), HEK293 cells expressing human recombinant D2 receptor, 0.1 nM-10000 nM
# [5] = CHO-K1 cells expressing human recombinant 5-HT2A receptor, α-methyl-5-hydroxytryptamine 300 nM, 0.1 nM-10000 nM
# Sequence of human recombinant D2 receptor (P14416 whole entry): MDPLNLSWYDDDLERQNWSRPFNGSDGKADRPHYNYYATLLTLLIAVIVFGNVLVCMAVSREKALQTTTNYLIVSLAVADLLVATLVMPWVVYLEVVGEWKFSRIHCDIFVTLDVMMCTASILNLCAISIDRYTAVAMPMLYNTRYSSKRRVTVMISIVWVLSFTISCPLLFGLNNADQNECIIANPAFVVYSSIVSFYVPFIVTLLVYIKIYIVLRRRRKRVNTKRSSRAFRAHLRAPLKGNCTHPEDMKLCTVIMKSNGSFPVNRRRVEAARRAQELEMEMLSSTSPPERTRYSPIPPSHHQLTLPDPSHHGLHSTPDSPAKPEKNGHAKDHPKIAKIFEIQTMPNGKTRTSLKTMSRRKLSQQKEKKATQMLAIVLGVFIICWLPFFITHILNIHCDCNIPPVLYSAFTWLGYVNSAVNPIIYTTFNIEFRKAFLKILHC
# Sequence of human recombinant 5-HT2A receptor (P28223 whole entry): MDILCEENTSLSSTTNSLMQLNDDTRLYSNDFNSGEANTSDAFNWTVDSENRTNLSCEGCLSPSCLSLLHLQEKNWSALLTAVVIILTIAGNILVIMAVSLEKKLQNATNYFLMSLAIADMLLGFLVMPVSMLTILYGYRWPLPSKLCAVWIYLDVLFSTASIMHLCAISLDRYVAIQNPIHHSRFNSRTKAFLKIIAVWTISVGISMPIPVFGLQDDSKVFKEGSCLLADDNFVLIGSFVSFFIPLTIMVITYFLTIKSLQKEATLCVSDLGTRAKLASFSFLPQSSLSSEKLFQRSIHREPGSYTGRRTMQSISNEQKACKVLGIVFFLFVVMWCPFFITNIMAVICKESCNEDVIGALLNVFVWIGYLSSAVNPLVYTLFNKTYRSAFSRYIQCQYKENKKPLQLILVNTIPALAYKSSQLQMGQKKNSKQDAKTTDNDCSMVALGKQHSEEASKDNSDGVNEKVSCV
# Sequence of human recombinant 5-HT1A receptor (P08908 whole entry): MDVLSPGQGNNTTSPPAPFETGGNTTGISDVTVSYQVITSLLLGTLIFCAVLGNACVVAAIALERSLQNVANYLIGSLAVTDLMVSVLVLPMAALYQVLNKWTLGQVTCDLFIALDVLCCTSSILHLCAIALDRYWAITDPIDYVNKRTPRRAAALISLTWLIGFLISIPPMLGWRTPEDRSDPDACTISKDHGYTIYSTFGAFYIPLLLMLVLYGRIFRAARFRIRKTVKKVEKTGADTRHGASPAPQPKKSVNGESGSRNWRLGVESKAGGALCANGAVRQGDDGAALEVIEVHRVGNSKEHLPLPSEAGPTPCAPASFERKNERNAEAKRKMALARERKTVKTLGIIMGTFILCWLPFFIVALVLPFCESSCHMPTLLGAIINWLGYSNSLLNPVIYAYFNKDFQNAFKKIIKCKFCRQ
structure (smiles),measurement,setting,value
"O=C1COc2c(F)cc(CCCCN3CCN(c4cccc5sccc45)CC3)cc2N1 [Compound of example 72, 6-(4-(4-(benzo[b]thiophen-4-yl)piperazin-1-yl)butyl)-8-fluoro-2H-benzo[b][1,4]oxazin-3(4H)-one]",EC50,[1],0.00253 µM
same,Effective dose,[2],3 mg/kg
same,IC50,[3]; [5],0.951 µM
same,IC50,[4],0.0132 µM
"Cl.O=C1CCc2ccc(CCN3CCN(c4cccc5sc(F)cc45)CC3)cc2N1 [Compound of example 64, 7-(2-(4-(2-fluorobenzo[b]thiophen-4-yl)piperazin-1-yl)ethyl)-3,4-dihydroquinolin-2(1H)-onehydrochloride]",EC50,[1],0.0316 µM
same,Effective dose,[2],1 mg/kg
same,IC50,[3]; [5],0.257 µM
same,IC50,[4],0.00294 µM
"O=C1CCc2ccc(CCN3CCN(c4cc(F)cc5sccc45)CC3)cc2N1 [Compound of example 85, 7-(2-(4-(6-fluorobenzo[b]thiophen-4-yl)piperazin-1-yl)ethyl)-3,4-dihydroquinolin-2(1H)-one]",EC50,[1],0.00138 µM
same,Effective dose,[2],1 mg/kg
same,IC50,[3],0.0775 µM
same,IC50,[4],0.00532 µM
"Cl.O=S1(=O)NCCc2ccc(CCN3CCN(c4cccc5sccc45)CC3)cc21 [Compound of example 81, 7-(2-(4-(benzo[b]thiophen-4-yl)piperazin-1-yl)ethyl)-1,1-dioxide-3,4-dihydro-2H-benzo[e][1,2]thiazine hydrochloride]",EC50,[1],0.00105 µM
same,Effective dose,[2],1 mg/kg
same,IC50,[3]; [5],0.00167 µM
same,IC50,[4],0.0143 µM
"O=C1Cc2cc(CCCCN3CCN(c4cccc5sccc45)CC3)ccc2N1 [Compound of example 112, 5-(4-(4-(benzo[b]thiophen-4-yl)piperazin-1-yl)butyl)indolin-2-one]",EC50,[1],0.0346 µM
same,Effective dose,[2],1 mg/kg
same,IC50,[3]; [5],0.257 µM
same,IC50,[4],0.0281 µM
"O=C1CCc2ccc(CCN3CCC(c4cccc5sccc45)CC3)cc2N1 [Compound of example 83, 7-(2-(4-(benzo[b]thiophen-4-yl)piperidin-1-yl)ethyl)-3,4-dihydroquinolin-2(1H)-one]",EC50,[1],0.00491 µM
same,Effective dose,[2],1 mg/kg
same,IC50,[3],0.025 µM
same,IC50,[4],0.0104 µM
"COc1cc2c(N3CCN(CCc4ccc5c(c4)CCC(=O)N5)CC3)cccc2s1 [Compound of example 89, 6-(2-(4-(2-methoxybenzo[b]thiophen-4-yl)piperazin-1-yl)ethyl)-3,4-dihydroquinolin-2(1H)-one]",EC50,[1],0.00129 µM
same,Effective dose,[2],1 mg/kg
same,IC50,[3]; [5],1.05 µM
same,IC50,[4],0.00806 µM
"O=C1COc2ccc(CCN3CCN(c4cc(F)cc5sccc45)CC3)cc2N1 [Compound of example 78, 6-(2-(4-(6-fluorobenzo[b]thiophen-4-yl)piperazin-1-yl)ethyl)-2H-benzo[b][1,4]oxazin-3(4H)-one]",EC50,[1],0.000599 µM
same,Effective dose,[2],3 mg/kg
same,IC50,[3]; [5],0.328 µM
same,IC50,[4],0.0456 µM
"O=C1CCc2ccc(CCN3CCN(c4cccc5sccc45)CC3)cc2N1 [Compound of example 19, 7-(2-(4-(benzo[b]thiophen-4-yl)piperazin-1-yl)ethyl)-3,4-dihydroquinolin-2(1H)-one]",EC50,[1],0.000926 µM
same,Effective dose,[2],0.1 mg/kg
same,IC50,[3]; [5],0.169 µM
same,IC50,[4],0.00862 µM
"O=C1CCc2cc(CCCCN3CCN(c4cccc5sc(F)cc45)CC3)ccc2N1 [Compound of example 74, 6-(4-(4-(2-fluorobenzo[b]thiophen-4-yl)piperazin-1-yl)butyl)-3,4-dihydroquinolin-2(1H)-one]",EC50,[1],0.0208 µM
same,Effective dose,[2],3 mg/kg
same,IC50,[3]; [5],0.874 µM
same,IC50,[4],0.00106 µM
"O=C1Cc2cc(CCN3CCC(c4cccc5sccc45)CC3)ccc2N1 [Compound of example 82, 5-(2-(4-(benzo[b]thiophen-4-yl)piperidin-1-yl)ethyl)indolin-2-one]",EC50,[1],0.0028 µM
same,Effective dose,[2],1 mg/kg
same,IC50,[3]; [5],0.0115 µM
same,IC50,[4],0.0109 µM
"O=C1CCc2cc(CCN3CCN(c4cccc5sc(F)cc45)CC3)ccc2N1 [Compound of example 65, 6-(2-(4-(2-fluorobenzo[b]thiophen-4-yl)piperazin-1-yl)ethyl)-3,4-dihydroquinolin-2(1H)-one]",EC50,[1],0.00125 µM
same,Effective dose,[2],3 mg/kg
same,IC50,[3]; [5],0.0403 µM
same,IC50,[4],0.00776 µM
"O=c1[nH]c2ccc(CCN3CCN(c4cccc5sc(F)cc45)CC3)cc2[nH]1 [Compound of example 77, 5-(2-(4-(2-fluorobenzo[b]thiophen-4-yl)piperazin-1-yl)ethyl)-1H-benzo[d]imidazol-2(3H)-one]",EC50,[1],0.0048 µM
same,Effective dose,[2],3 mg/kg
same,IC50,[3]; [5],0.157 µM
same,IC50,[4],0.00691 µM
"O=C1COc2ccc(CCCCN3CCN(c4cccc5sccc45)CC3)cc2N1 [Compound of example 137, 6-(4-(4-(benzo[b]thiophen-4-yl)piperazin-1-yl)butyl)-2H-benzo[b][1,4]oxazin-3(4H)-one]",EC50,[1],0.00181 µM
same,Effective dose,[2],3 mg/kg
same,IC50,[3]; [5],0.711 µM
same,IC50,[4],0.0302 µM
